Test results reported in BindingDB's records for doi:10.1016/j.bmcl.2020.126986 (Abbvie, 2020).

Columns and labels:
[1] = Inhibition of NS5B polymerase in HCV genotype 1b Con1 infected in human HuH7 replicon cells assessed as inhibition of viral replication after 3 days by luciferase reporter gene assay
[2] = Inhibition of NS5B polymerase in HCV genotype 1a H77 infected in human HuH7 replicon cells assessed as inhibition of viral replication after 3 days by luciferase reporter gene assay

SMILES	EC50 [1]	EC50 [2]
CC(C)C(=O)OC[C@H](C)NP(=O)(OC[C@H]1O[C@@H](n2ccc(=O)[nH]c2=O)[C@](Cl)(Br)[C@@H]1O)Oc1ccccc1 (stereo partly drawn)	455 nM	317 nM
CC(C)OC(=O)[C@H](C)N[P@@](=O)(OC[C@H]1O[C@@H](n2ccc(=O)[nH]c2=O)[C@](Cl)(Br)[C@@H]1O)Oc1ccccc1	515 nM	415 nM
CCOC(=O)C(C)(C)NP(=O)(OC[C@H]1O[C@@H](n2ccc(=O)[nH]c2=O)[C@](Cl)(Br)[C@@H]1O)Oc1ccccc1 (stereo partly drawn)	1170 nM	960 nM
CC(C)OC(=O)C(C)(C)NP(=O)(OC[C@H]1O[C@@H](n2ccc(=O)[nH]c2=O)[C@](Cl)(Br)[C@@H]1O)Oc1ccccc1 (stereo partly drawn)	1380 nM	1090 nM
CC(C)OC(=O)[C@H](C)N[P@](=O)(OC[C@H]1O[C@@H](n2ccc(=O)[nH]c2=O)[C@](Cl)(Br)[C@@H]1OC(=O)[C@@H](N)C(C)C)Oc1ccccc1	167 nM	156 nM
COc1cccc(O[P@](=O)(N[C@@H](C)C(=O)OC(C)C)OC[C@H]2O[C@@H](n3ccc(=O)[nH]c3=O)[C@](Cl)(Br)[C@@H]2O)c1	127 nM	98 nM
CCOC(=O)[C@H](C)N[P@](=O)(OC[C@H]1O[C@@H](n2ccc(=O)[nH]c2=O)[C@](Cl)(Br)[C@@H]1O)Oc1ccccc1	301 nM	298 nM
CC(C)OC(=O)[C@H](C)N[P@](=O)(OC[C@H]1O[C@@H](n2ccc(=O)[nH]c2=O)[C@](Cl)(Br)[C@@H]1O)Oc1ccccc1	147 nM	114 nM
CC(C)OC(=O)[C@H](C)N[P@](=O)(OC[C@H]1O[C@@H](n2ccc(=O)[nH]c2=O)[C@](Cl)(Br)[C@@H]1O)Oc1cccc2ccccc12	139 nM	106 nM
COCC(C)OC(=O)[C@H](C)NP(=O)(OC[C@H]1O[C@@H](n2ccc(=O)[nH]c2=O)[C@](Cl)(Br)[C@@H]1O)Oc1ccccc1 (stereo partly drawn)	387 nM	414 nM
CC(C)OC(=O)[C@H](C)N[P@](=O)(OC[C@H]1O[C@@H](n2ccc(=O)[nH]c2=O)[C@](Cl)(Br)[C@@H]1OC(=O)[C@@H](N)C(C)C)Oc1cccc2ccccc12	99 nM	94 nM
COCC(=O)OC[C@H](C)NP(=O)(OC[C@H]1O[C@@H](n2ccc(=O)[nH]c2=O)[C@](Cl)(Br)[C@@H]1O)Oc1ccccc1 (stereo partly drawn)	3040 nM	2500 nM
CCOC(=O)[C@H](C)N[P@@](=O)(OC[C@H]1O[C@@H](n2ccc(=O)[nH]c2=O)[C@](Cl)(Br)[C@@H]1O)Oc1ccccc1	1190 nM	1210 nM
COCC(C)C(=O)OC[C@H](C)NP(=O)(OC[C@H]1O[C@@H](n2ccc(=O)[nH]c2=O)[C@](Cl)(Br)[C@@H]1O)Oc1ccccc1 (stereo partly drawn)	522 nM	592 nM
